Source: ChEMBL document CHEMBL3792286, “A convenient and efficient approach to polyfluorosalicylic acids and their tuberculostatic activity” (Bioorg Med Chem Lett, 2016)
≈ marks a conversion by molar mass, not a printed value. Calls of active or inactive are those of the source. The calls are words filed in the database; no cut-off is given here.

Key:
[1] = test system: Mycobacterium tuberculosis
[2] = test system: Mycobacterium tuberculosis; assay: microbe, parasite or virus in culture; conditions: 240 h

SMILES	MIC [1]	MIC [2]
NNC(=O)c1ccncc1 [ISONIAZID]	inactive	–
CC1COc2c(N3CCN(C)CC3)c(F)cc3c(=O)c(C(=O)O)cn1c23 (stereo not given) [OFLOXACIN]	–	0.1 µg/mL (≈ 0.277 µM)
O=C(O)c1cc(F)c(F)cc1O	–	0.7 µg/mL (≈ 4.02 µM)
O=C(O)c1c(O)c(F)c(F)c(F)c1F	–	0.7 µg/mL (≈ 3.33 µM)
O=C(O)c1ccc(F)c(F)c1O	–	1.5 µg/mL (≈ 8.62 µM)
